Converted amounts (≈) assume the structure as drawn.
What was measured:
Assay type in all cases: functional
Escherichia coli [1] = assay: Antibacterial activity against Escherichia coli ATCC 25922 assessed as inhibition of bacterial growth measured after 24 hrs by CLSI based broth microdilution method
Staphylococcus aureus [2] = assay: Antibacterial activity against Staphylococcus aureus assessed as inhibition of bacterial growth measured after 24 hrs by CLSI based broth microdilution method
Acinetobacter baumannii = assay: Antibacterial activity against Acinetobacter baumannii assessed as inhibition of bacterial growth measured after 24 hrs by CLSI based broth microdilution method
Staphylococcus aureus [3] = assay: Antibacterial activity against methicillin-resistant Staphylococcus aureus N315 assessed as inhibition of bacterial growth measured after 24 hrs by CLSI based broth microdilution method
Staphylococcus aureus [4] = assay: Antibacterial activity against Staphylococcus aureus ATCC 25923 assessed as inhibition of bacterial growth measured after 24 hrs by CLSI based broth microdilution method
Enterococcus faecalis = assay: Antibacterial activity against Enterococcus faecalis assessed as inhibition of bacterial growth measured after 24 hrs by CLSI based broth microdilution method
Escherichia coli [5] = assay: Antibacterial activity against Escherichia coli assessed as inhibition of bacterial growth measured after 24 hrs by CLSI based broth microdilution method
Pseudomonas aeruginosa [6] = assay: Antibacterial activity against Pseudomonas aeruginosa ATCC 27853 assessed as inhibition of bacterial growth measured after 24 hrs by CLSI based broth microdilution method
Klebsiella pneumoniae = assay: Antibacterial activity against Klebsiella pneumoniae assessed as inhibition of bacterial growth measured after 24 hrs by CLSI based broth microdilution method
Pseudomonas aeruginosa [7] = assay: Antibacterial activity against Pseudomonas aeruginosa assessed as inhibition of bacterial growth measured after 24 hrs by CLSI based broth microdilution method

| Structure (SMILES) | MIC (Escherichia coli [1]) [µg/mL] | MIC (Staphylococcus aureus [2]) [µg/mL] | MIC (Acinetobacter baumannii) [µg/mL] | MIC (Staphylococcus aureus [3]) [µg/mL] | MIC (Staphylococcus aureus [4]) [µg/mL] | MIC (Enterococcus faecalis) [µg/mL] | MIC (Escherichia coli [5]) [µg/mL] | MIC (Pseudomonas aeruginosa [6]) [µg/mL] | MIC (Klebsiella pneumoniae) [µg/mL] | MIC (Pseudomonas aeruginosa [7]) [µg/mL] |
| --- | --- | --- | --- | --- | --- | --- | --- | --- | --- | --- |
| COP(=O)(OC)C(Nc1ccc(S(=O)(=O)Nc2nccs2)cc1)c1cc(O)c2c(c1)C(=O)c1cccc(O)c1C2=O (stereo not given) | 64 (≈ 104 µM) | 8 (≈ 13 µM) | 8 (≈ 13 µM) | 64 (≈ 104 µM) | 32 (≈ 52 µM) | 32 (≈ 52 µM) | 1 (≈ 1.62 µM) | 64 (≈ 104 µM) | 2 (≈ 3.25 µM) | 16 (≈ 26 µM) |
| CCOP(=O)(OCC)C(Nc1ccc(S(=O)(=O)Nc2nccs2)cc1)c1cc(O)c2c(c1)C(=O)c1cccc(O)c1C2=O (stereo not given) | 256 (≈ 398 µM) | 16 (≈ 24.9 µM) | 64 (≈ 99.4 µM) | 256 (≈ 398 µM) | 256 (≈ 398 µM) | 0.5 (≈ 0.777 µM) | 256 (≈ 398 µM) | 128 (≈ 199 µM) | 256 (≈ 398 µM) | 256 (≈ 398 µM) |
| O=C1c2cccc(O)c2C(=O)c2c(O)cc(C(Nc3ccc(S(=O)(=O)Nc4ncccn4)cc3)P(=O)(Oc3ccccc3)Oc3ccccc3)cc21 (stereo not given) | 32 (≈ 43.6 µM) | 32 (≈ 43.6 µM) | 64 (≈ 87.1 µM) | 64 (≈ 87.1 µM) | 256 (≈ 348 µM) | 64 (≈ 87.1 µM) | 64 (≈ 87.1 µM) | 64 (≈ 87.1 µM) | 128 (≈ 174 µM) | 128 (≈ 174 µM) |
| CCCCOP(=O)(OCCCC)C(Nc1ccc(S(=O)(=O)Nc2nccs2)cc1)c1cc(O)c2c(c1)C(=O)c1cccc(O)c1C2=O (stereo not given) | 256 (≈ 366 µM) | 256 (≈ 366 µM) | 256 (≈ 366 µM) | 256 (≈ 366 µM) | 256 (≈ 366 µM) | 256 (≈ 366 µM) | 256 (≈ 366 µM) | 256 (≈ 366 µM) | 256 (≈ 366 µM) | 256 (≈ 366 µM) |
| CCn1cc(C(=O)O)c(=O)c2cc(F)c(N3CCNCC3)cc21 [NORFLOXACIN] | 4 (≈ 12.5 µM) | 8 (≈ 25.1 µM) | 8 (≈ 25.1 µM) | 8 (≈ 25.1 µM) | 4 (≈ 12.5 µM) | 4 (≈ 12.5 µM) | 8 (≈ 25.1 µM) | 2 (≈ 6.26 µM) | 4 (≈ 12.5 µM) | 2 (≈ 6.26 µM) |
| Nc1ccc(S(=O)(=O)Nc2ncccn2)cc1 [SULFADIAZINE] | 32 (≈ 128 µM) | 64 (≈ 256 µM) | 32 (≈ 128 µM) | 64 (≈ 256 µM) | 16 (≈ 63.9 µM) | 16 (≈ 63.9 µM) | 64 (≈ 256 µM) | 64 (≈ 256 µM) | 256 (≈ 1020 µM) | 8 (≈ 32 µM) |
| Cc1cc(NS(=O)(=O)c2ccc(NC(c3cc(O)c4c(c3)C(=O)c3cccc(O)c3C4=O)P(=O)(Oc3ccccc3)Oc3ccccc3)cc2)no1 (stereo not given) | 32 (≈ 43.4 µM) | 64 (≈ 86.8 µM) | 64 (≈ 86.8 µM) | 64 (≈ 86.8 µM) | 256 (≈ 347 µM) | 64 (≈ 86.8 µM) | 64 (≈ 86.8 µM) | 256 (≈ 347 µM) | 128 (≈ 174 µM) | 64 (≈ 86.8 µM) |
| Cc1noc(NS(=O)(=O)c2ccc(NC(c3cc(O)c4c(c3)C(=O)c3cccc(O)c3C4=O)P(=O)(Oc3ccccc3)Oc3ccccc3)cc2)c1C (stereo not given) | 64 (≈ 85.1 µM) | 16 (≈ 21.3 µM) | 128 (≈ 170 µM) | 32 (≈ 42.6 µM) | 16 (≈ 21.3 µM) | 64 (≈ 85.1 µM) | 64 (≈ 85.1 µM) | 64 (≈ 85.1 µM) | 128 (≈ 170 µM) | 32 (≈ 42.6 µM) |
| COP(=O)(OC)C(Nc1ccc(S(=O)(=O)Nc2cc(C)on2)cc1)c1cc(O)c2c(c1)C(=O)c1cccc(O)c1C2=O (stereo not given) | 64 (≈ 104 µM) | 8 (≈ 13 µM) | 128 (≈ 209 µM) | 128 (≈ 209 µM) | 0.5 (≈ 0.815 µM) | 64 (≈ 104 µM) | 16 (≈ 26.1 µM) | 64 (≈ 104 µM) | 32 (≈ 52.2 µM) | 16 (≈ 26.1 µM) |
| O=C1c2cccc(O)c2C(=O)c2c(O)cc(C(Nc3ccc(S(=O)(=O)Nc4nccs4)cc3)P(=O)(Oc3ccccc3)Oc3ccccc3)cc21 (stereo not given) | 64 (≈ 86.5 µM) | 64 (≈ 86.5 µM) | 64 (≈ 86.5 µM) | 64 (≈ 86.5 µM) | 256 (≈ 346 µM) | 64 (≈ 86.5 µM) | 128 (≈ 173 µM) | 128 (≈ 173 µM) | 128 (≈ 173 µM) | 32 (≈ 43.3 µM) |
| CCCCOP(=O)(OCCCC)C(Nc1ccc(S(=O)(=O)Nc2cc(C)on2)cc1)c1cc(O)c2c(c1)C(=O)c1cccc(O)c1C2=O (stereo not given) | 64 (≈ 91.7 µM) | 128 (≈ 183 µM) | 64 (≈ 91.7 µM) | 16 (≈ 22.9 µM) | 128 (≈ 183 µM) | 256 (≈ 367 µM) | 128 (≈ 183 µM) | 64 (≈ 91.7 µM) | 256 (≈ 367 µM) | 64 (≈ 91.7 µM) |
| COP(=O)(OC)C(Nc1ccc(S(N)(=O)=O)cc1)c1cc(O)c2c(c1)C(=O)c1cccc(O)c1C2=O (stereo not given) | 8 (≈ 15 µM) | 32 (≈ 60.1 µM) | 0.5 (≈ 0.939 µM) | 16 (≈ 30 µM) | 128 (≈ 240 µM) | 0.25 (≈ 0.47 µM) | 2 (≈ 3.76 µM) | 32 (≈ 60.1 µM) | 128 (≈ 240 µM) | 64 (≈ 120 µM) |

From ChEMBL document CHEMBL5143638, “Natural aloe emodin-hybridized sulfonamide aminophosphates as novel potential membrane-perturbing and DNA-intercalating agents against Enterococcus faecalis” (Bioorg Med Chem Lett, 2022)
